Data from US20040253728A1, “New method” (priority 2000, published 2004).
*1 amine or outer side, *2 acyl side, *3 side chain or, on linkers, in order; H or OH if unused. Where a SMILES comes first, the peptide text is derived from it. Bridges are numbered along the chain shown (N, C = ends). Roman numbers before positions name the chains, in order. [ ]: non-standard residue; d: D form. Actinocin(9to1) = Cc1c2oc3c(C)ccc(C(=O)[*:1])c3nc-2c(C(=O)[*:2])c(N)c1=O; NMeV = CN[C@H](C(=O)O)C(C)C; Sar = CNCC(=O)O

What was measured:
[1] = test system: NADH dehydrogenase subunit 4 (ND4); details: cited from earlier work
[2] = test system: ρ^0 (143B/206) and ρ^+ (143B) osteosarcoma cells; experiment: Flow cytometric analysis of apoptotic cells (annexin V / propidium iodide); assay type: cell-based, human; details: for apoptosis induced in ρ^0 cells compared with ρ^+ cells (early apoptotic cells, annexin V positive/propidium iodide negative): 16 hours, 0.5 μM staurosporine, 100 ng/ml anti-Fas antibody or 20 ng/ml TNFα plus 100 ng/ml actinomycin D; for proapoptotic effect on ρ^0 or ρ^+ cells: agent alone
Protocol: (§1) A human osteosarcoma-derived cell line, 143B, containing mtDNA (ρ^+), and its mtDNA-less derivative, 143B/206 (ρ^0), were maintained in Dulbecco's Modified Eagle Medium (DMEM)-high glucose ([…]; GibcoBRL, Life Technologies AB, Sweden) containing 10% fetal bovine serum, and 100 IU/ml penicillin-streptomycin (GibcoBRL, Life Technologies AB, Sweden). The 143B/206 ρ^0 cells were additionally supplemented with 1 mM sodium pyruvate (GibcoBRL, Life Technologies AB, Sweden) and 50 μg/ml uridine (Sigma-Aldrich AB, Sweden) as described [King et al, Science 246:500-503 (1989)]. Cells were grown to sub-confluence.
We stained the cells with annexin V and propidium iodide using the Vybrant apoptosis assay kit 2 (Molecular Probes, Leiden, The Netherlands). Flow cytometric analyses were performed on a Beckton Dickinson flow cytometer (FACScan) and the results were analyzed by using the Cell Quest program (Beckton Dickinson).

[3] = test system: ρ^0 (143B/206) and ρ^+ (143B) osteosarcoma cells; experiment: Measurement of caspase 3 activity; assay type: cell-based, human; details: 16 hours; ρ^0 and ρ^+ cells; compared to untreated cells
Protocol: as §1
Caspase 3 activity was measured by the caspase 3 assay kit (Pharmingen, CA, USA). Briefly, a tetrapeptide labeled with the fluorochrome 7-amino-4-methylcoumarin (AMC) was used as a substrate to identify and quantitate caspase 3 activity. AMC is released from the substrate upon cleavage by caspase-3. Free AMC is quantified in cell lysates by ultraviolet (UV) using an excitation wavelength of 365 nm and an emission wavelength of 460 nm. […] Caspase 3 activity was measured on ρ^0 and ρ^+ cells incubated with 0.5 μM staurosporin (n=3), 100 ng/ml human anti-Fas antibody plus 100 ng/ml actinomycin D (n=3), and 20 ng/ml human recombinant tumour necrosis factor α plus 100 ng/ml actinomycin D (n=3) for 16 hours.

[4] = target: T1, human mtDNA light strand promoter (LSP) transcription (Homo sapiens, UniProt O00411+Q00059); experiment: In vitro run off transcription assay with recombinant mtRNAP, TFAM, TFB1M/TFB2M; assay type: biochemical; details: TFAM (2.5 pmol), mtRNAP/TFB1M (400 fmol) or mtRNAP/TFB2M (400 fmol)
T1 construct: 10xHis (N); 6xHis (C); made in house; host or cells: Sf9 insect cells, recombinant baculovirus (pBacPAK9)
T1 sequence (O00411 42-1230): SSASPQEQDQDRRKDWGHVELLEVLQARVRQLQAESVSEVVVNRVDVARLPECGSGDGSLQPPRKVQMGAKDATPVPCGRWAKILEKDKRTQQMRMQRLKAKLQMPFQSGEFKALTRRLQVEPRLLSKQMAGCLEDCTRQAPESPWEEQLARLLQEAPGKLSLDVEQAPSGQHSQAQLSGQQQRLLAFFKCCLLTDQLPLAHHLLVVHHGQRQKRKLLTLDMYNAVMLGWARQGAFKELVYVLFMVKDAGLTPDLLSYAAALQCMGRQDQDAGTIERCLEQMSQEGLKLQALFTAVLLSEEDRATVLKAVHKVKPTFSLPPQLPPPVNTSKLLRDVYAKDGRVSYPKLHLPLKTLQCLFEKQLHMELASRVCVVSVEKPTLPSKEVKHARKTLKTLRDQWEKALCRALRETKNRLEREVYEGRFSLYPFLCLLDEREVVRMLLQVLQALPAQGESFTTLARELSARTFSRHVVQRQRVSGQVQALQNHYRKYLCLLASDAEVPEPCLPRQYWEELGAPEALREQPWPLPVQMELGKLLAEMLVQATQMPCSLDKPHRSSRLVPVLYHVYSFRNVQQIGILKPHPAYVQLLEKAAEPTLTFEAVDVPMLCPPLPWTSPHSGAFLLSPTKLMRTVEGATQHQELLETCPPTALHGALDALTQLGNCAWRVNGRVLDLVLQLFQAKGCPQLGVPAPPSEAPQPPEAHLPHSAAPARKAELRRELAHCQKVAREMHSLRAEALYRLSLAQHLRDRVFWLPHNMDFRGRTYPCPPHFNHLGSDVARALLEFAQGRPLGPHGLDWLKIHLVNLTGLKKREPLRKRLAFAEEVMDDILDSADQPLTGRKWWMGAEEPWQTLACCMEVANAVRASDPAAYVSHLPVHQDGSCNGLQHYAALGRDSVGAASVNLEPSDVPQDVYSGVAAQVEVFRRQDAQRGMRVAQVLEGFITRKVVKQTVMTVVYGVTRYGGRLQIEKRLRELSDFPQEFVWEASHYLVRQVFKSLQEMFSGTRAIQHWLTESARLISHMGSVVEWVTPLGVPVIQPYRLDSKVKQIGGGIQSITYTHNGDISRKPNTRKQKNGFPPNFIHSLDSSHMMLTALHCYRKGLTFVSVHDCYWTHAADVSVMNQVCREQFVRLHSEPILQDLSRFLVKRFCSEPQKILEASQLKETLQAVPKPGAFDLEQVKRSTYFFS
T1 sequence (Q00059 43-246): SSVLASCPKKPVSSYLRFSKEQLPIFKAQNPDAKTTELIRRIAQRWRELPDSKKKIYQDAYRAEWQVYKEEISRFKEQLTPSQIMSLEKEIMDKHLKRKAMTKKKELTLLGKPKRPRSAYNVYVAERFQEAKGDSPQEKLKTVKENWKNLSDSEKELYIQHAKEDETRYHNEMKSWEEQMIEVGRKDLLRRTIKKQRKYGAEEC
Text: Recombinant human mitochondrial RNA polymerase (mtRNAP), TFAM, TFB1M, and TFB2M were expressed in a baculovirus system and purified to homogeneity. The activity of these proteins was studied in vitro by run off transcription assays. The template used was a human mtDNA fragment containing the light strand promoter (LSP) followed by a 200 base pairs long stretch of double-stranded DNA. Neither, mtRNAP, TFAM, TFB1M nor TFB2M did alone initiate transcription from the mtDNA promoter. […] However, specific transcription initiation from LSP was obtained by combining either mtRNAP, TFAM and TFB1M or mtRNAP, TFAM and TFB2M. On the basis of these experiments we conclude that both TFB1M and TFB2M are functional homologues of the previously identified Saccharomyces cerevisiae protein Mtf1.
To investigate the promoter specificity of the transcription reaction, we added a double-stranded oligonucleotide containing only the LSP sequence in a 100-fold surplus to the template DNA. […]
DNA fragments corresponding to base pairs 1-741 (LSP/HSP), 1-477 (LSP) or 499-741 (HSP) of human mtDNA [Anderson et al., Nature 290:457 (1981)] were cloned into pUC18. […] The pellets were dissolved in 10 μl of gel loading buffer (98% formamide, 10 mM EDTA pH 8.0, 0.025% xylene cyanol FF, 0.025% bromophenol blue), heated at 95° C. for 5 min, and analyzed on a 5% denaturing polyacrylamide gel in 1×TBE. […]

Molecule | cell death in the cell population [1] | differentiation in the surviving population [1] | further results
C=C(C)[C@H]1Cc2c(ccc3c2O[C@@H]2COc4cc(OC)c(OC)cc4[C@@H]2C3=O)O1 [Rotenone] | increase cell death | induce differentiation | –
CN[C@@H]1C[C@H]2O[C@@](C)([C@@H]1OC)n1c3ccccc3c3c4c(c5c6ccccc6n2c5c31)C(=O)NC4 [STP, staurosporine] | – | – | apoptosis induced in ρ^0 cells compared with ρ^+ cells (early apoptotic cells, annexin V positive/propidium iodide negative) [2]: more STP-induced apoptosis in cells with mtDNA (ρ^+ cells) than in their mtDNA-less derivatives; induction of caspase 3 activity [3]: significant induction of caspase 3 activity in both ρ^0 and ρ^+ cells
Cc1c2oc3c(C)ccc(C(=O)N[C@@H]4C(=O)N[C@H](C(C)C)C(=O)N5CCC[C@H]5C(=O)N(C)CC(=O)N(C)[C@@H](C(C)C)C(=O)O[C@@H]4C)c3nc-2c(C(=O)N[C@@H]2C(=O)N[C@H](C(C)C)C(=O)N3CCC[C@H]3C(=O)N(C)CC(=O)N(C)[C@@H](C(C)C)C(=O)O[C@@H]2C)c(N)c1=O [actinomycin D] (I: T[dV]P[Sar][NMeV] / II: T[dV]P[Sar][NMeV]; ester I:1-I:C, II:1-II:C; linker I:N-II:N via Actinocin(9to1)) | – | – | apoptosis induced in ρ^0 cells compared with ρ^+ cells (early apoptotic cells, annexin V positive/propidium iodide negative) [2]: no significant differences in the fraction of apoptotic cells; proapoptotic effect on ρ^0 or ρ^+ cells [2]: proapoptotic effect on both ρ^0 and ρ^+ cells
Antimycin A | increase cell death | induce differentiation | –
Oligomycine | increase cell death | induce differentiation | –
TNFα | – | – | proapoptotic effect on ρ^0 or ρ^+ cells [2]: no proapoptotic effect
TFB2M: recombinant human mitochondrial transcription factor B2, homologue of yeast Mtf1, expressed in a baculovirus system (protein) AGRFCILGSEAATRKHLPARNHCGLSDSSPQLWPEPDFRNPPRKASKASLDFKRYVTDRRLAETLAQIYLGKPSRPPHLLLECNPGPGILTQALLEAGAKVVALESDKTFIPHLESLGKNLDGKLRVIHCDFFKLDPRSGGVIKPPAMSSRGLFKNLGIEAVPWTADIPLKVVGMFPSRGEKRALWKLAYDLYSCTSIYKFGRIEVNMFIGEKEFQKLMADPGNPDLYHVLSVIWQLACEIKVLHMEPWSSFDIYTRKGPLENPKRRELLDQLQQKLYLIQMIPRQNLFTKNLTPMNYNIFFHLLKHCFGRRSATVIDHLRSLTPLDARDILMQIGKQEDEKVVNMHPQDFKTLFETIERSKDCAYKWLYDETLEDR | – | – | transcriptional activation compared with TFB1M [4]: at least one order of magnitude greater
